Test results reported in PubChem BioAssay AID284 (DTP/NCI, 2004).
Several values for one entry are separate records, joined by “and”; a condition that tells them apart may be missing. Identical values can stand only once. Inconclusive results and toxic doses are left out. Rule for the calls: active = survival T/C of 150% or more; inactive = T/C below 125% in these data.

Tested on: BDF1 mice, L1210/MTX-resistant leukemia ip, survival T/C
Assay: NCI In Vivo Anticancer Drug Screen. Data for tumor model L1210 Leukemia resistant to Methotrexate; NSC 740 (intraperitoneal) in B6D2F1 (BDF1) mice
Details: endpoint: mean survival time, higher = longer survival
Protocol: The antitumor activity of compounds was measured in mice bearing transplantable tumors. Survival or tumor size were measured and the results are expressed as the measurement made in the treated group (T) divided by the measurement made in the vehicle treated control group (C). The tumor model used in this assay is L1210 Leukemia resistant to Methotrexate; NSC 740 (intraperitoneal) in B6D2F1 (BDF1) mice

[1] = dose: 10.0 mg/kg/injection, schedule: Q01DX010 (ip), vehicle: saline
[2] = dose: 20.0 mg/kg/injection, schedule: Q01DX010 (ip), vehicle: saline
[3] = dose: 0.75 mg/kg/injection, schedule: Q01DX Z (ip), vehicle: carboxymethylcellulose (CMC)
[4] = dose: 3.0 mg/kg/injection, schedule: Q01DX Z (ip), vehicle: carboxymethylcellulose (CMC)
[5] = dose: 5.0 mg/kg/injection, schedule: Q01DX010 (ip), vehicle: saline
[6] = dose: 6.0 mg/kg/injection, schedule: Q01DX Z (ip), vehicle: carboxymethylcellulose (CMC)
[7] = dose: 10.0 mg/kg/injection, schedule: Q01DX Z (ip), vehicle: carboxymethylcellulose (CMC)

Measured: T/C

Cn1c(N)nc2nc[nH]c2c1=S
inactive: dose: 6.25 mg/kg/injection, schedule: Q01DX Z (ip), vehicle: carboxymethylcellulose (CMC) 108 % of control | [1] 98 % of control | dose: 12.5 mg/kg/injection, schedule: Q01DX Z (ip), vehicle: carboxymethylcellulose (CMC) 90 % of control | [2] 95 % of control | dose: 25.0 mg/kg/injection, schedule: Q01DX Z (ip), vehicle: carboxymethylcellulose (CMC) 104 % of control | dose: 40.0 mg/kg/injection, schedule: Q01DX010 (ip), vehicle: saline 97 % of control | dose: 50.0 mg/kg/injection, schedule: Q01DX Z (ip), vehicle: carboxymethylcellulose (CMC) 119 % of control | dose: 80.0 mg/kg/injection, schedule: Q01DX010 (ip), vehicle: saline 115 % of control

C[N+](C)(C)c1ncnc2nc[nH]c12
inactive: dose: 15.0 mg/kg/injection, schedule: Q01DX010 (ip), vehicle: saline 94 % of control

Cc1cc(N(CCCl)CCCl)ccc1N=Nc1ccccc1C(=O)O
inactive: dose: 0.37 mg/kg/injection, schedule: Q01DX Z (ip), vehicle: carboxymethylcellulose (CMC) 104 % of control | [3] 124 % of control | [4] 94 % of control | dose: 4.0 mg/kg/injection, schedule: Q01DX Z (ip), vehicle: carboxymethylcellulose (CMC) 109 % of control | [5] 123 % of control | [6] 124 % of control | dose: 8.0 mg/kg/injection, schedule: Q01DX Z (ip), vehicle: carboxymethylcellulose (CMC) 104 % of control | [1] 107 % of control | [7] 97 % of control | [2] 88 % of control

O=C(Nc1ccc(C2=NCCN2)cc1)c1ccc(C(=O)Nc2ccc(C3=NCCN3)cc2)cc1
active: dose: 4.0 mg/kg/injection, schedule: Q01DX010 (ip), vehicle: other 194 % of control and 204 % of control | dose: 8.0 mg/kg/injection, schedule: Q01DX010 (ip), vehicle: other 244 % of control and 279 % of control | dose: 16.0 mg/kg/injection, schedule: Q01DX010 (ip), vehicle: other 218 % of control and 219 % of control | dose: 32.0 mg/kg/injection, schedule: Q01DX010 (ip), vehicle: other 231 % of control and 239 % of control | dose: 64.0 mg/kg/injection, schedule: Q01DX010 (ip), vehicle: other 222 % of control and 242 % of control
inactive: dose: 10.0 mg/kg/injection, schedule: Q01DX Z (ip), vehicle: methylcellulose (MC) 124 % of control and 105 % of control | dose: 20.0 mg/kg/injection, schedule: Q01DX Z (ip), vehicle: methylcellulose (MC) 120 % of control and 106 % of control | dose: 40.0 mg/kg/injection, schedule: Q01DX Z (ip), vehicle: methylcellulose (MC) 117 % of control

CCCSc1ncnc2nc[nH]c12
inactive: dose: 0.5 mg/kg/injection, schedule: Q01DX Z (ip), vehicle: other 103 % of control | dose: 2.0 mg/kg/injection, schedule: Q01DX Z (ip), vehicle: other 93 % of control | dose: 4.0 mg/kg/injection, schedule: Q01DX Z (ip), vehicle: other 93 % of control | dose: 31.3 mg/kg/injection, schedule: Q01DX010 (ip), vehicle: saline 104 % of control | dose: 62.5 mg/kg/injection, schedule: Q01DX010 (ip), vehicle: saline 95 % of control | dose: 87.5 mg/kg/injection, schedule: Q01DX Z (ip), vehicle: other 100 % of control | dose: 125.0 mg/kg/injection, schedule: Q01DX010 (ip), vehicle: saline 90 % of control | dose: 175.0 mg/kg/injection, schedule: Q01DX Z (ip), vehicle: other 88 % of control | dose: 250.0 mg/kg/injection, schedule: Q01DX010 (ip), vehicle: saline 88 % of control

CC(=O)Nc1ccc2nc3ccc(NC(C)=O)cc3[n+](-c3ccccc3)c2c1
inactive: dose: 2.0 mg/kg/injection, schedule: Q01DX Z (ip), vehicle: carboxymethylcellulose (CMC) 107 % of control | [4] 88 % of control | [6] 100 % of control

Nc1nc(=S)c2[nH]cnc2[nH]1
inactive: [3] 97 % of control | dose: 1.25 mg/kg/injection, schedule: Q01DX010 (ip), vehicle: saline 99 % of control and 106 % of control | dose: 1.5 mg/kg/injection, schedule: Q01DX Z (ip), vehicle: carboxymethylcellulose (CMC) 88 % of control | dose: 2.5 mg/kg/injection, schedule: Q01DX010 (ip), vehicle: saline 90 % of control | dose: 2.5 mg/kg/injection, schedule: Q01DX Z (ip), vehicle: carboxymethylcellulose (CMC) 102 % of control | [5] 92 % of control | dose: 5.0 mg/kg/injection, schedule: Q01DX Z (ip), vehicle: carboxymethylcellulose (CMC) 107 % of control | dose: 7.5 mg/kg/injection, schedule: Q01DX Z (ip), vehicle: carboxymethylcellulose (CMC) 108 % of control | [7] 98 % of control | dose: 15.0 mg/kg/injection, schedule: Q01DX Z (ip), vehicle: carboxymethylcellulose (CMC) 88 % of control
